Where “and” joins values, the source holds several entries; their conditions need not be identical. Identical values can stand only once.
Tests used:
A549 cells = assay: Cytotoxicity in A549 cells (ATP levels, 72 h); assay type: cell-based, human; conditions: Homo sapiens, single agent
MCF7 cells = assay: cells; assay type: cell-based; conditions: Homo sapiens, single agent
[1] = system: AKR1C and NQO1 protein in MCF7 cells; assay: AKR1C and NQO1 protein in MCF7 cells (Western blots); assay type: cell-based, human; conditions: 24 hrs
Procedure: Method: AREc32 cells were seeded out in 96 well plates and treated with DMSO (control), tBHQ (50 μM), tBHQ+BTB09463 (5 μM) or tBHQ+Retinoic acid (1 μM). After 24 hours incubation, cells were washed and lysed before measuring luciferase activity. BTB09463 is 1-{4-[(3,4-dichlorobenzyl)oxy]phenyl}ethan-1-one. […] Method: AREc32 cells were seeded out in 96 well plates and dosed with BTB09463 (2.5, 5 or 10 μM) for 0, 24 or 48 hrs before treatment with tBHQ (50 μM). 24 hours after the addition of tBHQ, cells were washed and lysed before measuring luciferase activity. […] Method: ARE c32 cells were seeded out in 96 well plates and treated with DMSO (control), tBHQ (50 μM), tBHQ+retinoid (0.25, 0.5 and 1 μM). After 24 hours incubation, cells were washed and lysed before measuring luciferase activity. […] See FIG. 16 Method: A. Caco-2 cells were treated with the known ARE-gene inducer sulforaphane (5 μM), either alone or concomitantly with BTB09463 (5 μM) or Retinoic acid (1 μM). After 24 hrs, cell lysates were prepared and Western blotting performed to measure the levels of AKR1C protein. B. MCF7 cells were treated with sulforaphane (5 μM), either alone or concomitantly with BTB09463 (5 μM). After 24 hrs, cell lysates were prepared and Western blots performed to detect the levels of AKR1C and NQO1; GAPDH was used as a loading control in MCF7 cells. […] Method: Caco-2 cells were treated with DMSO (control), BTB09463 (5 μM), sulforaphane (5 μM) or a combination of sulforaphane plus BTB09463. After 24 hrs treatment, cells were harvested and RNA isolated. cDNA for each sample was generated by reverse transcription and subsequently used in real time PCR analysis of gene transcription (TaqMan analysis) for the ARE-driven genes AKR1C1 and NQO1. Data was normalised to the internal control 18S RNA and the relative levels of AKR1C1 and NQO1 calculated using the comparative CT method. […] Method: MCF7 cells were treated with the known ARE-gene inducer sulforaphane (5 μM), either alone or with various retinoids (0.5 μM). After 24 hrs, cell lysates were prepared and Western blots were performed to detect the levels of AKR1C protein present. […] See FIG. 19 Method: ARE reporter cell line AREc23 was seeded into 96 well plates and treated with a previously determined non-toxic concentration of cytotoxic drug. After 24 hours incubation, cells were washed and lysed before measuring luciferase activity. […] See FIG. 20a Method: ARE reporter cell line AREc23 was seeded into 96 well plates and treated with DMSO (control), Carmustine (100 μM), Carmustine+BTB09463 (5 μM) or Carmustine+Retinoic acid (5 μM) After 24 hours incubation, cells were washed and lysed before measuring luciferase activity. […] After 24 hours incubation, cells were washed and lysed before measuring luciferase activity. B. Modified repeat of experiment A, with cells being pretreated with L-buthionine-(SR)-sulfoximine (BSO), an inhibitor of enzymes in the glutathione synthesis pathway. After 24 hours incubation, cells were washed and lysed before measuring luciferase activity. […] Method: Caco-2 cells were treated for 24 hrs with DMSO (control), Carmustine (100 μM), Carmustine+BTB09463 (5 μM). After 24 hrs, cell lysates were prepared and Western blots to detect the levels of AKR1C. […] Method: MCF7 cells were treated for 24 hrs with DMSO (control; Lane 1), Sulforaphane (5 μM) (Lane 2), Carmustine (100 μM) (Lane 3), Carmustine+BTB09463 (5 μM) (Lane 5). (Lane 4 represents experimental conditions irrelevant to the application). After 24 hrs, cell lysates were prepared and Western blots to detect the levels of Nrf2, NQO1 and AKR1C proteins.

[2] = system: AKR1C protein in Caco-2 cells; assay: AKR1C protein in Caco-2 cells (Western blotting); assay type: cell-based, human; conditions: 24 hrs
Procedure: (§1) Method: AREc32 cells were seeded out in 96 well plates and treated with DMSO (control), tBHQ (50 μM), tBHQ+BTB09463 (5 μM) or tBHQ+Retinoic acid (1 μM). After 24 hours incubation, cells were washed and lysed before measuring luciferase activity. BTB09463 is 1-{4-[(3,4-dichlorobenzyl)oxy]phenyl}ethan-1-one. […] Method: AREc32 cells were seeded out in 96 well plates and dosed with BTB09463 (2.5, 5 or 10 μM) for 0, 24 or 48 hrs before treatment with tBHQ (50 μM). 24 hours after the addition of tBHQ, cells were washed and lysed before measuring luciferase activity. […] Method: ARE c32 cells were seeded out in 96 well plates and treated with DMSO (control), tBHQ (50 μM), tBHQ+retinoid (0.25, 0.5 and 1 μM). After 24 hours incubation, cells were washed and lysed before measuring luciferase activity. […] See FIG. 16 Method: A. Caco-2 cells were treated with the known ARE-gene inducer sulforaphane (5 μM), either alone or concomitantly with BTB09463 (5 μM) or Retinoic acid (1 μM). After 24 hrs, cell lysates were prepared and Western blotting performed to measure the levels of AKR1C protein. B. MCF7 cells were treated with sulforaphane (5 μM), either alone or concomitantly with BTB09463 (5 μM). After 24 hrs, cell lysates were prepared and Western blots performed to detect the levels of AKR1C and NQO1; GAPDH was used as a loading control in MCF7 cells. […] Method: Caco-2 cells were treated with DMSO (control), BTB09463 (5 μM), sulforaphane (5 μM) or a combination of sulforaphane plus BTB09463. After 24 hrs treatment, cells were harvested and RNA isolated. cDNA for each sample was generated by reverse transcription and subsequently used in real time PCR analysis of gene transcription (TaqMan analysis) for the ARE-driven genes AKR1C1 and NQO1. Data was normalised to the internal control 18S RNA and the relative levels of AKR1C1 and NQO1 calculated using the comparative CT method. […] Method: MCF7 cells were treated with the known ARE-gene inducer sulforaphane (5 μM), either alone or with various retinoids (0.5 μM). After 24 hrs, cell lysates were prepared and Western blots were performed to detect the levels of AKR1C protein present. […] See FIG. 19 Method: ARE reporter cell line AREc23 was seeded into 96 well plates and treated with a previously determined non-toxic concentration of cytotoxic drug. After 24 hours incubation, cells were washed and lysed before measuring luciferase activity. […] See FIG. 20a Method: ARE reporter cell line AREc23 was seeded into 96 well plates and treated with DMSO (control), Carmustine (100 μM), Carmustine+BTB09463 (5 μM) or Carmustine+Retinoic acid (5 μM) After 24 hours incubation, cells were washed and lysed before measuring luciferase activity. […] After 24 hours incubation, cells were washed and lysed before measuring luciferase activity. […]

[3] = system: ARE-driven luciferase activity in AREc32 cells; assay: Induction of ARE-driven luciferase activity in stable AREc32 reporter cells; assay type: cell-based, human
[4] = system: AKR1C mRNA in AREc32 cells; assay: AKR1C mRNA in AREc32 cells (TaqMan); conditions: 24 h
[5] = system: AKR1C1, NQO1, GCLC, GCLM mRNA in A549 cells; assay: Constitutive mRNA of ARE-driven genes in A549 cells (Taqman); assay type: cell-based, human; conditions: 24 hrs
[6] = system: AKR1C protein in LS174 cells; assay: AKR1C protein in LS174 cells; assay type: cell-based, human; conditions: data not shown
[7] = system: AKR1C1 and NQO1 mRNA in Caco-2 cells; assay: AKR1C1 and NQO1 mRNA in Caco-2 cells (TaqMan); assay type: cell-based, human; conditions: sulforaphane 5 μM + BTB09463 5 μM, 24 hrs
Procedure: as §1

[8] = system: ARE-driven luciferase activity in AREc32 cells; assay: Antagonism of induced ARE-driven luciferase activity in AREc32 cells; assay type: cell-based, human
Fas-induced killing = conditions: WO 01/57189; cited from earlier work
[9] = system: ARE reporter system in Hepa1 cells; assay: Transient pGL-GSTA2.41bp-ARE luciferase reporter in Hepa1 cells; conditions: 50 μM tBHQ
Procedure: (§2) The Dual-luciferase Reporter Assay System (Promega) was used to examine reporter gene activity in transiently transfected cells. Briefly, cells were seeded at a density of 2×10^5 cells/well in 24-well plates and grown in the appropriate medium. After overnight incubation, the cells were transiently transfected with various ARE-luciferase reporter plasmids. The plasmid pRL-TK, encoding Renilla luciferase was used to control for transfection efficiency. Transfections were performed using Lipofectamine 2000 Reagent (Lifer Technologies Inc. Ltd., Coventry, UK) according to the manufacture's instructions. Following transfection, the culture medium was replaced 24 h later with fresh growth medium containing 50 μM tBHQ (in a solution giving a final concentration of 0.1% v/v dimethyl sulfoxide (DMSO)), which was prepared immediately before each experiment. For control experiments, vehicle alone (0.1% v/v DMSO) was added to the growth medium. Cells were left for 24 h to respond to xenobiotics before being harvested and the firefly and Renilla luciferase activities in cell lysates were measured using a luminometer (Turner Designs Model TD-20/20, Promega) following addition of Luciferase Assay Reagent II (Promega). […] The relative luciferase activity was calculated by normalizing firefly luciferase activity to that of Renilla luciferase. […]

[10] = system: ARE reporter system in MCF7 cells; assay: Transient pGL-GSTA2.41bp-ARE luciferase reporter in MCF7 cells
Procedure: The Dual-luciferase Reporter Assay System (Promega) was used to examine reporter gene activity in transiently transfected cells. Briefly, cells were seeded at a density of 2×10^5 cells/well in 24-well plates and grown in the appropriate medium. After overnight incubation, the cells were transiently transfected with various ARE-luciferase reporter plasmids. The plasmid pRL-TK, encoding Renilla luciferase was used to control for transfection efficiency. Transfections were performed using Lipofectamine 2000 Reagent (Lifer Technologies Inc. Ltd., Coventry, UK) according to the manufacture's instructions. Following transfection, the culture medium was replaced 24 h later with fresh growth medium containing 50 μM tBHQ (in a solution giving a final concentration of 0.1% v/v dimethyl sulfoxide (DMSO)), which was prepared immediately before each experiment. For control experiments, vehicle alone (0.1% v/v DMSO) was added to the growth medium. Cells were left for 24 h to respond to xenobiotics before being harvested and the firefly and Renilla luciferase activities in cell lysates were measured using a luminometer (Turner Designs Model TD-20/20, Promega) following addition of Luciferase Assay Reagent II (Promega). After quenching the reaction, the Renilla luciferase reaction was initiated by adding Stop & Glo Reagent (Promega). The relative luciferase activity was calculated by normalizing firefly luciferase activity to that of Renilla luciferase.
In order to choose an appropriate cell system for the generation of a stable reporter cell line, pGL-GSTA2.41 bp-ARE was transfected into HepG2, MCF7, CHO, Hepa1 cells.

[11] = system: ARE reporter system in HepG2 cells; assay: Transient pGL-GSTA2.41bp-ARE luciferase reporter in HepG2 cells; conditions: 50 μM tBHQ
Procedure: as §2

[12] = system: ARE reporter system in CHO cells; assay: Transient pGL-GSTA2.41bp-ARE luciferase reporter in CHO cells; conditions: 50 μM tBHQ
Procedure: as §2

[13] = system: ARE-green fluorescent protein (GFP) reporter HepG2 cell line; conditions: 90 μM tBHQ; HepG2/GFP-B; cited from earlier work
[14] = Carmustine 100 μM + BTB09463 5 μM
[15] = HepG2 cells treated with DMSO set at 1

O=NN(CCCl)C(=O)NCCCl [BCNU, carmustine]
IC50 (A549 cells): > 1500 µM | IC50 (MCF7 cells): 291 µM | NQO1 and AKR1C protein expression ([1]; Carmustine 100 μM): caused over-expression of NQO1 and AKR1C protein | AKR1C protein expression ([2]; Carmustine 100 μM): massive induction | effect on luciferase activity in AREc32 cells (in words) ([3]; 24 h, sub-lethal doses, no BSO): stronger inducing agent | Type of modulation ([3]; AREc32, 24 h, grouping of drugs by effect on luciferase activity): Weak inducers | induction of ARE-driven luciferase activity ([3]; previously determined non-toxic concentration, 24 hours): 4.5 fold | induction of AKR1C mRNA ([4]; without BSO, 100 μM BCNU): 3 fold

CC(=O)c1ccc(OCc2ccc(Cl)c(Cl)c2)cc1 [BTB09463, 1-{4-[(3,4-dichlorobenzyl)oxy]phenyl}ethan-1-one]
IC50 (A549 cells): 52 µM | IC50 (MCF7 cells): 28 µM | carmustine over expression of AKR1C and NQO1 protein [1, 14]: attenuated | sulforaphane-driven induction of NQO1 and AKR1C protein ([1]; sulforaphane 5 μM + BTB09463 5 μM): potently inhibited | carmustine induction of AKR1C protein [2, 14]: attenuated | sulforaphane induction of AKR1C protein ([2]; sulforaphane 5 μM, BTB09463 5 μM or Retinoic acid 1 μM): dramatically reduced | constitutive expression of AKR1C1 mRNA ([5]; BTB09463 1, 5, 20, 40 μmol/l or retinoids 0.050, 0.20, 0.50, 2.0 μmol/l): inhibited the constitutive expression of AKR1C1 in a concentration-dependent manner | constitutive mRNA levels of NQO1, GCLC and GCLM ([5]; BTB09463 1-40 μmol/l or retinoic acid 0.050-2.0 μmol/l): repressed the constitutive mRNA levels of NQO1, GCLC and GCLM in a concentration-dependent manner | carmustine induction of AKR1C protein [6]: reproduced in LS174 cells | reduction of sulforaphane-induced AKR1C1 mRNA [7]: 50% | sulforaphane-induced NQO1 mRNA expression [7]: reduced to basal levels | suppression of tBHQ induction of luciferase ([8]; 50 μM tBHQ + 5 μM BTB09463, 24 h): approximately 65% | suppression of tBHQ-mediated induction of luciferase expression, by dosing regimen ([8]; BTB09463 2.5, 5 or 10 μM for 0, 24 or 48 hrs before 50 μM tBHQ): identical under each dosing regimen | carmustine-mediated induction of luciferase activity ([8]; Carmustine 100 μM + BTB09463 5 μM or Retinoic acid 5 μM, 24 hours): completely suppress

O=c1oc2ccccc2c(O)c1Cc1c(O)c2ccccc2oc1=O [Dirumarol]
protection conferred by Nrf2 against Fas-induced killing (Fas-induced killing): antagonise protection conferred by Nrf2 against Fas-induced killing

CC(C)(C)c1cc(O)ccc1O [tBHQ, tert-butylhydroquinone]
Ratio (tBHQ/DMSO) [9]: 3.6 ± 0.5 | Relative luciferase activity (tBHQ treated) [9, 15]: 140.7 ± 19.6 | Ratio (tBHQ/DMSO) ([10]; 50 μM tBHQ): 52.0 ± 11.9 | Relative luciferase activity (tBHQ treated) ([10]; 50 μM tBHQ, HepG2 cells treated with DMSO set at 1): 2276.1 ± 521.1 | induction of luciferase activity ([10]; overnight treatment with 50 μM tBHQ): up to 50 fold | Ratio (tBHQ/DMSO) [11]: 2.8 ± 0.9 | Relative luciferase activity (tBHQ treated) [11, 15]: 2.8 ± 0.9 | Ratio (tBHQ/DMSO) [12]: 2.7 ± 0.1 | Relative luciferase activity (tBHQ treated) [12, 15]: 1171.6 ± 8.8 | increase of luciferase activity ([3]; 1 μM tBHQ, 24 h): 2 fold | increase of luciferase activity ([3]; 5 μM tBHQ, 24 h): 5 fold | lag phase before increase of luciferase activity ([3]; 10 μM tBHQ alone): approximately 3 hour | increase of luciferase activity ([3]; 10 μM tBHQ, 8 h): 4 fold | increase of luciferase activity ([3]; 10 μM tBHQ, 18 h): 10 fold | induction of luciferase activity ([3]; 10 μM tBHQ, 50 ng pRS-hNrf2 DNA per well (Nrf2 RNAi)): 8 fold | induction of luciferase activity ([3]; 10 μM tBHQ, 100 ng pRS-hNrf2 DNA per well (Nrf2 RNAi)): 6 fold | induction of luciferase activity ([3]; 10 μM tBHQ, control cells, no DNA in the transfection mix): 13 fold and 10 fold | inducible level of luciferase activity ([3]; 10 μM tBHQ, transfection with 50 ng pHyg-EF-hNrf2 per well): 19 fold | inducible level of luciferase activity ([3]; 10 μM tBHQ, transfection with 100 ng pHyg-EF-hNrf2): 25 fold | induction of luciferase expression compared to DMSO control ([3]; 50 μM tBHQ, 24 h): 14 fold | CD, concentration of inducting agent that doubled luciferase reporter activity ([3]; AREc32, 24 h, DMSO set at 1): 1 µM | maximal increase of GFP reporter [13]: 3 fold | induction of AKR1C1 mRNA ([4]; 10 μM tBHQ): approximately 15 fold

From patent US20120309087A1, “CANCER THERAPY” (University Court of The University of Dundee, priority 2006, published 2012)
